In patent US8759390B2, “Chromene modulators of chemokine receptor activity” (Bristol-Myers Squibb Company, priority 2008, dated 2014):

Target: T1, CCR2 (Homo sapiens, UniProt P41597)
T1 construct: THP-1 human monocytic leukemic cell line, which expresses endogenous CCR2; endogenous in cells; host or cells: THP-1 human monocytic leukemia cells, or human PBMC / human monocytes
T1 sequence (P41597 1-360 isoform P41597-2): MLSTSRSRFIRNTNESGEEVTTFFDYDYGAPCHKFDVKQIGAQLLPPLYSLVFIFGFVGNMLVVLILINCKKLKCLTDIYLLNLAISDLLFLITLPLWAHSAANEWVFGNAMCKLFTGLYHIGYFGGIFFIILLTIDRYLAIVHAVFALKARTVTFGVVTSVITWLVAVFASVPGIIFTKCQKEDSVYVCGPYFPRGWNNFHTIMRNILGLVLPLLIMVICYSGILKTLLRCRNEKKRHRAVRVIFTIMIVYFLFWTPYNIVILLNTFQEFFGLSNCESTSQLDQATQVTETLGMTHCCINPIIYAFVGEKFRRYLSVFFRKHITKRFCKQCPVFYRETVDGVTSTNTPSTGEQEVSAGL
Assay: CCR2 binding (125I-human MCP-1 competition on human PBMC / THP-1 cells)
Conditions: n = 1 unless otherwise noted; tested in one of the assays described
Procedure: Antagonism of MCP-1 Binding to Human PBMC
Millipore filter plates (#MABVN1250) are treated with 100 μl of binding buffer (0.5% bovine serum albumin, 20 mM HEPES buffer and 5 mM magnesium chloride in RPMI 1640 media) for thirty minutes at room temperature. To measure binding, 50 μl of binding buffer, with or without a known concentration compound, is combined with 50 μl of ^125-I labeled human MCP-1 (to give a final concentration of […] radioligand) and 50 μl of binding buffer containing 5×10^5 cells. Cells used for such binding assays can include human peripheral blood mononuclear cells isolated by Ficoll-Hypaque gradient centrifugation, human monocytes (Weiner et al., J. Immunol. Methods. 1980, 36, 89), or the THP-1 cell line which expresses the endogenous receptor. The mixture of compound, cells and radioligand are incubated at room temperature for thirty minutes. Plates are placed onto a vacuum manifold, vacuum applied, and the plates washed three times with binding buffer containing 0.5M NaCl. The plastic skirt is removed from the plate, the plate allowed to air dry, the wells punched out and counted. The percent inhibition of binding is calculated using the total counts obtained in the absence of any competing compound and the background binding determined by addition of 100 nM MCP-1 in place of the test compound.
THP-1 Monocytic Cell Binding: Whole Cell-Based Assay
The human CCR2 binding assay was also established with the THP-1 human monocytic leukemic cell line, which expresses endogenous CCR2, using ^125I-human MCP-1 as the tracer ligand. Radioligand competition binding assays were used for assessment of binding affinity of test compounds to the CCR2 receptor. For radioligand competition studies, 100 μl containing 2.5×10^5 THP-1 cells/well (in assay buffer containing 50 mM HEPES, pH7.4, 5mM MgCl2, 1 mM CaCl2 and 0.5% BSA) were added to 96-well assay plates containing the test compounds in 3-fold serial dilution, with final concentrations ranging from 5 μM to […]. Subsequently, 50 μl ^125I-MCP-1 radioligand at a final concentration of 0.2 nM in assay buffer were added to the reaction. After a 90 minute incubation period at room temperature, the binding reaction was terminated by harvesting on GF/B filter plates (PerkinElmer Cat. No. 6005177) followed by washing with ice-cold wash buffer (50 mM HEPES, pH 7.4, 0.1% BSA, 0.5 M NaCl) to remove unbound ligand. After washing, the plate was dried for 45 minutes at 60° C. followed by addition of 40 μl MicroScint 20 scintillation fluid, sealed and analyzed by the Packard TopCount reader. Non-specific binding was determined in the presence of 10 μM (a molar excess of […]) of an in-house CCR2 small molecule antagonist (CCR2 IC50=2 nM). Specific binding of ^125I-MCP-1 was calculated as the difference between total and non-specific binding. The competition data was plotted as a percentage inhibition of radioligand specific bound in the absence of test compound (percent of total signal). After correcting for non-specific binding, IC50 values were determined The IC50 is defined as the concentration of test compound required to reduce ^125I-MCP-1 specific binding by 50% and was calculated using the four parameter logistic equation to fit the normalized data.

Row | Structure (SMILES) | Ki [µM]
1 | O=C(O)C1=Cc2ccccc2OC1c1ccc(C(F)(F)F)c(Cl)c1 (racemic) [Example 7-5, 2-(3-chloro-4-trifluoromethyl-phenyl)-2H-chromene-3-carboxylic acid] | 0.39
2 | COc1ccc2c(c1)C=C(C(=O)O)C(c1ccc(Cl)c(Cl)c1)O2 (racemic) [Example 8, 2-(3,4-dichlorophenyl)-6-methoxy-2H-chromene-3-carboxylic acid] | 0.36
3 | O=C(O)C1=Cc2ccc(F)cc2OC1c1ccc(Cl)c(Cl)c1 (racemic) [Example 9-1, 2-(3,4-dichlorophenyl)-7-fluoro-2H-chromene-3-carboxylic acid] | 0.35
4 | O=C(O)C1=Cc2ccc3ccccc3c2OC1c1ccc(Cl)c(Cl)c1 (racemic) [Example 9-3, 2-(3,4-dichlorophenyl)-2H-benzo[h]chromene-3-carboxylic acid] | 1.2
5 | O=C(O)C1=Cc2cc(F)ccc2OC1c1ccc(Cl)c(Cl)c1 (racemic) [Example 9-4, 2-(3,4-dichlorophenyl)-6-fluoro-2H-chromene-3-carboxylic acid] | 0.34
6 | O=C(O)C1=Cc2ccc(Br)cc2OC1c1ccc(Cl)c(Cl)c1 (racemic) [Example 9-5, 2-(3,4-dichlorophenyl)-7-bromo-2H-chromene-3-carboxylic acid] | 0.72
7 | O=C(O)C1=Cc2ccccc2OC1c1ccc(Cl)c(Cl)c1 (single isomer, unassigned; (+)) [Example 6b, (+)-2-(3,4-dichlorophenyl)-2H-chromene-3-carboxylic acid] | 1.7

Stronger by Ki, values ahead:

Row | Ki [µM] | Structure (SMILES)
8 | 0.3 | O=C(O)C1=Cc2cc(Cl)ccc2OC1c1ccc(Cl)c(Cl)c1 (racemic) [Example 9-2, 2-(3,4-dichlorophenyl)-6-chloro-2H-chromene-3-carboxylic acid]
9 | 0.3 | COc1ccc2c(c1)OC(c1ccc(Cl)c(Cl)c1)C(C(=O)O)=C2 (racemic) [Example 9-6, 2-(3,4-dichlorophenyl)-7-methoxy-2H-chromene-3-carboxylic acid]
10 | 0.17 | O=C(O)C1=Cc2ccccc2OC1c1ccc(Cl)c(Br)c1 (racemic) [Example 7-4, 2-(3-bromo-4-chlorophenyl)-2H-chromene-3-carboxylic acid]
11 | 0.08 | O=C(O)C1=Cc2ccccc2OC1c1ccc(Cl)c(Cl)c1 (single isomer, unassigned; (-)) [Example 6a, (−)-2-(3,4-dichlorophenyl)-2H-chromene-3-carboxylic acid]
